Patent US5244908A, “Imidazopyridine derivatives and their pharmaceutical use” (Takeda Chemical Industries, Ltd., priority 1990, dated 1993)

Legend:
[1] = test system: endothelial cells (HUVE cells); test: Effect on growth of endothelial cells (HUVE cells, basic FGF, MTT method); format: cell-based; settings: Homo sapiens, Endothelial cell, 72 h, basic FGF 2 ng/ml, 3 days, read-out: IC50 (concentration inhibiting growth of endotherial cells by 50%)
Description: This experiment was conducted by using endothelial cells (HUVE cells) obtained from human umbilical vein. […] After 24 hours, human recombinant basic FGF (endotherial cell growth factor) was added thereto in the final concentration of 2 ng/ml and a test compound was further added, followed by cultivation for 3 days.

[2] = target: calmodulin (Bos taurus, UniProt P62157); test: Calmodulin inhibitory activity (calmodulin-activated cyclic nucleotide phosphodiesterase, [3H]cGMP); format: biochemical; settings: 10^-5 M
[3] = test system: spontaneous hypertensive rat (SHR); test: Hypotensive activity in spontaneous hypertensive rat (SHR), Plethysmograph method; format: in vivo; settings: SHR male rats, oral, 100 mg/kg; for Change of blood pressure, 1 hour: 1 hour after administration; for Change of blood pressure, 5 hours: 5 hours after administration
Description: Hypotensive activity in spontaneous hypertensive rat (SHR)
SHR male rats of twenty weeks old were used. They were warmed in an incubator at 37° C. for 5 minutes and the measurement was conducted according to Plethysmograph method. Medicines (the compounds in the above Examples) were suspended in gum arabic-water and were orally administered in an amount of 2.5 ml/kg. Blood pressure was measured before administration of medicines, at 1 hour and at 5 hours after administration, and the change of the value from that before administration was determined, respectively.

[4] = test system: rat heart; test: Effect on incidence of arrhythmia caused by ischemia and following reperfusion in rat heart; format: in vivo; settings: 1 hour before ligation, until 10 minutes after reperfusion
Description: Effect on incidence of arrhythmia caused by ischemia and following reperfusion in rat heart
Male Sprague Dawley rats (Japan Clea) of 9 to 10 weeks old were anesthetized with 50 mg/kg (i.p.) of sodium pentobarbital. The heart was exposed by a left thoractomy under artificial ventilation with room air and silk suture was placed under the main left coronary artery (LAD) to ligate for 5 minutes. Then, the ligature was released again for reperfusion. The incidence of ventricular tachycardia (VT), ventricular fibrillation (VF) and cardiac arrest (CA) caused until 10 minutes after reperfusion were noted. Medicines (compounds obtained in the above Examples) were orally administered (5 ml/kg) at 1 hour before tightening the ligature. The effect of medicines were estimated in comparison with the frequency of a group received a vehicle according to X^2 -test.

[5] = test system: experimental ischemic disorders; settings: in vivo; cited from earlier work
[6] = test system: rat kidneys; test: Effect on acute renal failure caused by ischemia and following reperfusion in rat kidneys; format: in vivo; settings: 1 hour before occlusion, 20 hours after reperfusion
Description: Effect on acute renal failure caused by ischemia and following reperfusion in rat kidneys.
SD rats (male) of 6 to 7 weeks old were anesthetized with pentobarbital sodium (50 mg/kg, i.p.) and bilateral renal arteries were ligated. After 45 minutes, a clip was removed to reperfuse. After 20 hours, blood was collected from abdominal aorta under anesthesia with pentobarbital sodium and blood urea nitrogen (BUN) was measured. Medicines (compounds obtained in the above Examples) were orally administered (5 ml/kg) 1 hour before occulusion of renal artery.

Structure (SMILES)	inhibition at 10 µM [2]	Change of blood pressure, 1 hour [3]	Change of blood pressure, 5 hours [3]	CA (Frequency), cardiac arrest ([4]; 30 mg/kg oral)	VF (Frequency), ventricular fibrillation ([4]; 30 mg/kg oral)	VT (Frequency), ventricular tachycardia ([4]; 30 mg/kg oral)	also measured
CC(C)OC(=O)NCCSc1cccc2nccn12 [21']							IC50 [1]: 5 µM
O=S(=O)(NCCCCCOc1cccc2nccn12)C(F)(F)F [Compound 69, 5-[5-(Trifluoromethylsulfonylamino)pentyloxy]imidazo[1,2-a]pyridine]	57%	-7.0 mmHg	-32.0 mmHg				
O=S(=O)(NCCCCOc1cccc2nccn12)C(F)(F)F [Compound 67, 5-[4-(Trifluoromethylsulfonylamino)butyloxy]imidazo[1,2-a]pyridine]	72%	-15.0 mmHg	-22.0 mmHg				
CS(=O)(=O)NCCCOc1cccc2nccn12 [Compound 64, 5-[3-(methylsulfonylamino)propyloxy]imidazo[1,2-a]pyridine]	82%	-31.0 mmHg	-27.0 mmHg	1/3	1/3	1/3	
CN(C)CCCN1c2ccccc2Sc2ccc(Cl)cc21 [chlorpromazine]							effect on experimental ischemic disorders (in words) [5]: effective for experimental ischemic disorders
O=S(=O)(NCCCSc1cccc2nccn12)C(F)(F)F [Compound 28, 5-[3-(Trifluoromethylsulfonylamino)propylthio]imidazo[1,2-a]pyridine]	72%	-13.5 mmHg	-43.0 mmHg				
O=C(NCc1ccncc1)OCCSc1cccc2nccn12 [Compound 127, 5-[2-[4-(Pyridyl)methylcarbamoyloxy]ethylthio]imidazo[1,2-a]pyridine]	57%			0/3	1/3	1/3	
CS(=O)(=O)NCCSc1cccc2nccn12 [Compound 1, 5-[2-(methylsulfonylamino)ethylthio]imidazo[1,2-a]pyridine]	94%	-11.2 mmHg	-11.5 mmHg	0/4	1/4	1/4	Blood urea nitrogen ([6]; 10 mg/kg oral): 83.3 ± 20.4 mg/dL; Blood urea nitrogen ([6]; 30 mg/kg oral): 71.1 ± 11.4 mg/dL; Blood urea nitrogen ([6]; 50 mg/kg oral): 65.6 ± 5.1 mg/dL; CA (Frequency), cardiac arrest ([4]; 10 mg/kg oral): 1/4; VF (Frequency), ventricular fibrillation ([4]; 10 mg/kg oral): 2/4; VT (Frequency), ventricular tachycardia ([4]; 10 mg/kg oral): 2/4
